Assays:
cellulose synthase = target: T1, cellulose synthase (Novacetimonas hansenii, UniProt Q59167); assay: Inhibitory concentration IC50 against cellulose synthase; format: biochemical, acetic acid bacteria; details: cellulose synthase (B-3) 1.5 U/mL
T1 construct: FLAG; made in house; host or cells: Escherichia coli SURE, as in Preparation 1
Protocol: (§1) Hyaluronan synthase aqueous solution (B-1) obtained in Preparation 1 was dissolved to a concentration of 1.5 U/mL in 940 μL of aqueous solution 1 (50 mM phosphate buffer (pH of 7.5, 25° C.) containing 5 mM magnesium chloride and 0.05 mM sodium uridine diphosphate) in a 1.5 mL-tube. The tube was allowed to stand at 40° C. for 20 minutes in a constant temperature water bath. To the tube was added 50 μL of temperature-adjusted (40° C.) substrate solution [1-1] (a solution obtained by dissolving uridine diphosphate-glucuronic acid sodium salt and uridine diphosphate-N-acetylglucosamine both to a concentration of 20 mM in buffer solution B (50 mM phosphate buffer, pH of 7.5, 25° C.)). Thereby, enzyme reaction solution (I-1) was obtained. […] The supernatant (80 μL) was analyzed by HPLC under the following conditions, and the peak areas of hyaluronan were recorded. […]
The inhibitory concentration IC50 was measured in a similar manner as in “Measurement of the inhibitory concentration IC50 against hyaluronan synthase”, except that “cellulose synthase aqueous solution (B-3) obtained in Preparation 12” was used in place of “hyaluronan synthase aqueous solution (B-1) obtained in Preparation 1”, “substrate solution [1-3] […]
The inhibitory concentration IC50 was also determined in a similar manner, except that the amount of cellulose synthase aqueous solution (B-3) was changed from 1.5 U/mL to 45 U/mL. […]

chondroitin synthase = target: T2, chondroitin synthase (Pasteurella multocida, UniProt Q9CMP0); assay: Inhibitory concentration IC50 against chondroitin synthase; format: biochemical
T2 construct: FLAG; made in house; host or cells: Escherichia coli SURE, as in Preparation 1
Protocol: as §1
The inhibitory concentration IC50 was measured in a similar manner as in “Measurement of the inhibitory concentration IC50 against hyaluronan synthase”, except that “chondroitin synthase aqueous solution (B-2) obtained in Preparation 11” was used in place of “hyaluronan synthase aqueous solution (B-1) obtained in Preparation 1”, “substrate solution [1-2] […]
The inhibitory concentration IC50 was also determined in a similar manner, except that the amount of chondroitin synthase aqueous solution (B-2) was changed from 1.5 U/mL to 45 U/mL.

T1 sequence (Q59167 whole entry): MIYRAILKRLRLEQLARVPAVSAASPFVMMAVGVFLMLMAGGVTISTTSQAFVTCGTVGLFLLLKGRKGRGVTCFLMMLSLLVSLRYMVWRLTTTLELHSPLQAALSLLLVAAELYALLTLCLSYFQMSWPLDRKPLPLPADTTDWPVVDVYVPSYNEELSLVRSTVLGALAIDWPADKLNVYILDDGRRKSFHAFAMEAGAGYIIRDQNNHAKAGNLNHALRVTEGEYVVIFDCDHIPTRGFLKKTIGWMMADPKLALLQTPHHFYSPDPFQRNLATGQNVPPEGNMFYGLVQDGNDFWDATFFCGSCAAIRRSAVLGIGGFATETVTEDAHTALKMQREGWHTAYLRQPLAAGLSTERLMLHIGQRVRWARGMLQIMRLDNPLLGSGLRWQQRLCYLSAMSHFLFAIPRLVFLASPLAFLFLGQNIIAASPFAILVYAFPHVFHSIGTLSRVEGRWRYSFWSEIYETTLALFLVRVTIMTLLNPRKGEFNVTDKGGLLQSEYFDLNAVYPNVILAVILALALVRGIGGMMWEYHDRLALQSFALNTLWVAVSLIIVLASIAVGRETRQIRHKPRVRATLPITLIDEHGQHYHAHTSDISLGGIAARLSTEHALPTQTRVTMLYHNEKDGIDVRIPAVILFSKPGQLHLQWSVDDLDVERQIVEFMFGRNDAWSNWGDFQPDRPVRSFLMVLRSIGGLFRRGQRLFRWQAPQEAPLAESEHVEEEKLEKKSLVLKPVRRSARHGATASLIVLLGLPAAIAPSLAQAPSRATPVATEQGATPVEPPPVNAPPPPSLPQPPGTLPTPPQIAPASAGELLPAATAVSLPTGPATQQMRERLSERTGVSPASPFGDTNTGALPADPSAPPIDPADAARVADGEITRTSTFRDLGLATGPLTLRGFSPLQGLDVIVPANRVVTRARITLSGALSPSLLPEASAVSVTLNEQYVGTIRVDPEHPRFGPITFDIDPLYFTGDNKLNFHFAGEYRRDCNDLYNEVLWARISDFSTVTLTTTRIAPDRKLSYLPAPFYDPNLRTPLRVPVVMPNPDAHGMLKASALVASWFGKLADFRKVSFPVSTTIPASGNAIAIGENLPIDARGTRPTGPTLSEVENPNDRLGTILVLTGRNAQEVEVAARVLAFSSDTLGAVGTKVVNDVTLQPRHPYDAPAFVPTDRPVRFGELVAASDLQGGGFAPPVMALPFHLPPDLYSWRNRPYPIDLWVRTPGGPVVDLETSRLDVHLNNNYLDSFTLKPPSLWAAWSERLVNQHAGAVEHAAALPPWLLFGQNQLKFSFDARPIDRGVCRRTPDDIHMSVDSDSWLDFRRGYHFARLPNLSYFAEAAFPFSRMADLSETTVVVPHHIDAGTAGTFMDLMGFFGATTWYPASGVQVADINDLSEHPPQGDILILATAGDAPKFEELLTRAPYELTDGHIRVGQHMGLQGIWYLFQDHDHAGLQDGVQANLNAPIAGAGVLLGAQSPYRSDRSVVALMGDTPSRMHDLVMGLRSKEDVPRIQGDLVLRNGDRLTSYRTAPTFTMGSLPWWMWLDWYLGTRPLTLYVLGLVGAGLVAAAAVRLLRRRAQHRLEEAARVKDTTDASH

O=c1ccn([C@@H]2O[C@H](COP(=O)(O)OP(=O)(O)O)[C@@H](O)[C@H]2O)c(=O)[nH]1 [uridine diphosphate]
IC50 (cellulose synthase): 100 µM | IC50 (chondroitin synthase): 85 µM
